# In the Kinase Knowledgebase extract (Sharma et al. 2016):
# Biological target: PIK3CA (human) (UniProt P42336)
# Experiment: Inhibition of PIK3CA Kinase Activity
# Sequence of PIK3CA (human) (P42336 whole entry, looked up): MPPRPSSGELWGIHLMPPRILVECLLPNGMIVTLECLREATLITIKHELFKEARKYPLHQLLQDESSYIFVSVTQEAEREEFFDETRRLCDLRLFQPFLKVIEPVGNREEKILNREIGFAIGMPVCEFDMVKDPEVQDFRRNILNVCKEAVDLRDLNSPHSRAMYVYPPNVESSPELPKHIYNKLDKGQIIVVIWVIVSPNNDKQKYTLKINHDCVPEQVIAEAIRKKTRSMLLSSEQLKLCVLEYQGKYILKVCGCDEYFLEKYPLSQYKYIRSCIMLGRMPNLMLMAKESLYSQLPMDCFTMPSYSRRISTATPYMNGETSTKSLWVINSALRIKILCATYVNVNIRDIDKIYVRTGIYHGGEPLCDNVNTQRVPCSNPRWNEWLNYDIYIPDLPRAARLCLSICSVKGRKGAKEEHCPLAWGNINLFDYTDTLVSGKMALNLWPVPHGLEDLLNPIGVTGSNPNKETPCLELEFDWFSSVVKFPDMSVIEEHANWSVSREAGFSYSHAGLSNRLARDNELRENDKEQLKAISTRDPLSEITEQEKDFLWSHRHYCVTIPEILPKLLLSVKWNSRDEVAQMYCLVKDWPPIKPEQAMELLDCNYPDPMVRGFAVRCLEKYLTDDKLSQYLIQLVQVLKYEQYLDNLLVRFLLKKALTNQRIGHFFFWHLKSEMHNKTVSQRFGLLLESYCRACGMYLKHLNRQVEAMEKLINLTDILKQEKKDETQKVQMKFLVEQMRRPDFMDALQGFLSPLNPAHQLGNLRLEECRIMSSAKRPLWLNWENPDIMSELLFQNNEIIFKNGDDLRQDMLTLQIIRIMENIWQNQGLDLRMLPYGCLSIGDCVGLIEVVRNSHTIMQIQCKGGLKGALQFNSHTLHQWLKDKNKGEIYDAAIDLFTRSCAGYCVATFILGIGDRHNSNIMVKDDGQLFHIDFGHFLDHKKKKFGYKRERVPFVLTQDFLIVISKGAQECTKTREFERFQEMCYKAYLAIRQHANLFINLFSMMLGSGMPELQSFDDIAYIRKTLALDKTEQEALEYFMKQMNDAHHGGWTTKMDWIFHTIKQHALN
row,SMILES,IC50 [nM]
1,c1ccc2c(c1)nc(C1CC1)n2-c1nc(-c2cccc3[nH]ccc23)nc(N2CCOCC2)n1,< 1000
2,CC(C)c1nc2ccccc2n1-c1nc(-c2cccc3[nH]ccc23)nc(N2CCOCC2)n1,< 1000
3,Nc1ccc(-c2nc(N3CCOCC3)nc(-n3ccc(C(F)(F)F)n3)n2)cn1,< 1000
4,CCCCN(C)Cc1cn(-c2nc(-c3cccc4[nH]ccc34)nc(N3CCOCC3)n2)c(C)n1,< 1000
5,Cc1ccn(-c2nc(-c3cnc(N)nc3)nc(N3CCOCC3)n2)n1,< 1000
6,Nc1ccc2c(c1)nc(C(F)(F)F)n2-c1nc(-c2cccc3[nH]ccc23)nc(N2CCOCC2)n1,< 1000
7,Cc1nc2ccccc2n1-c1nc(-c2cnc(N)nc2)nc(N2CCOCC2)n1,< 1000
8,O=C(NC1CC1)c1cc2ccccc2n1-c1nc(-c2cccc3[nH]ccc23)nc(N2CCOCC2)n1,< 1000
9,CCc1nc(C)c(CO)n1-c1nc(-c2cccc3[nH]ccc23)nc(N2CCOCC2)n1,< 1000
10,CC(=O)Nc1ccc(-c2nc(N3CCOCC3)nc(-n3c(C)nc4ccccc43)n2)cn1,< 1000
11,CCCc1nc2ccccc2n1-c1nc(-c2cccc3[nH]ccc23)nc(N2CCOCC2)n1,< 1000
12,Cc1cc(C)n(-c2nc(-c3ccc(N)nc3)nc(N3CCOCC3)n2)n1,< 1000
13,COCCNCc1cn(-c2nc(-c3cccc4[nH]ccc34)nc(N3CCOCC3)n2)c(C)n1,< 1000
14,Cc1ccc2c(c1)ncn2-c1nc(-c2cccc3[nH]ccc23)nc(N2CCOCC2)n1,< 1000
15,Cc1cc(C(F)(F)F)n(-c2nc(-c3ccc(N)nc3)nc(N3CCOCC3)n2)n1,< 1000
16,O=C(O)c1cc2ccccc2n1-c1nc(-c2cccc3[nH]ccc23)nc(N2CCOCC2)n1,< 1000
17,Cc1nc(CN2CCCC2)cn1-c1nc(-c2cccc3[nH]ccc23)nc(N2CCOCC2)n1,< 1000
18,COCCNC(=O)c1cc2ccccc2n1-c1nc(-c2cccc3[nH]ccc23)nc(N2CCOCC2)n1,< 1000
19,Cc1nc2ccccc2n1-c1nc(-c2cccc(CO)c2)nc(N2CCOCC2)n1,< 1000
20,CCCc1cn(-c2nc(-c3cccc4[nH]ccc34)nc(N3CCOCC3)n2)c(CC)n1,< 1000
21,Nc1ncc(-c2nc(N3CCOCC3)nc(-n3ccc(C(F)(F)F)n3)n2)cn1,< 1000
22,Cc1cc(C)n(-c2nc(-c3cccc4[nH]ccc34)nc(N3CCOCC3)n2)n1,< 1000
23,COc1nc(N)ncc1-c1nc(N2CCOCC2)nc(-n2ccnc2C)n1,< 1000
24,Cc1nc2ccccc2n1-c1nc(-c2cccc3[nH]ccc23)nc(N2CCOCC2)n1,< 1000
25,Cc1nccn1-c1nc(-c2cccc3[nH]ccc23)nc(N2CCOCC2)n1,< 1000
26,Cc1nc2ccccc2n1-c1nc(-c2cc(O)cc(F)c2)nc(N2CCOCC2)n1,< 1000
27,CCc1nc2ccccc2n1-c1nc(-c2cnc(N)nc2)nc(N2CCOCC2)n1,< 1000

row,SMILES,IC50 [nM]
1,CCc1nccn1-c1nc(-c2ccnc3[nH]ccc23)nc(N2CCOCC2)n1,< 1000
2,CCCc1nccn1-c1nc(-c2cccc3[nH]ccc23)nc(N2CCOCC2)n1,< 1000
3,C=Cc1nccn1-c1nc(-c2cccc3[nH]ccc23)nc(N2CCOCC2)n1,< 1000
4,FC(F)c1nc2ccccc2n1-c1nc(-c2cccc3[nH]ccc23)nc(N2CCOCC2)n1,< 1000
5,CCN(CC)CCN(C)Cc1cn(-c2nc(-c3cccc4[nH]ccc34)nc(N3CCOCC3)n2)cn1,< 1000
6,Cc1nc(N)ncc1-c1nc(N2CCOCC2)nc(-n2ccnc2C(C)C)n1,< 1000
7,CCCCN(C)Cc1c(C)nc(CC)n1-c1nc(-c2cccc3[nH]ccc23)nc(N2CCOCC2)n1,< 1000
8,OCc1cn(-c2nc(-c3cccc4[nH]ccc34)nc(N3CCOCC3)n2)cn1,< 1000
9,CCc1nc(C#Cc2ccccn2)cn1-c1nc(-c2cccc3[nH]ccc23)nc(N2CCOCC2)n1,< 1000
10,c1ccc(Cc2nccn2-c2nc(-c3cccc4[nH]ccc34)nc(N3CCOCC3)n2)cc1,< 1000
11,CCCCc1nc2ccccc2n1-c1nc(-c2cnc(N)nc2)nc(N2CCOCC2)n1,< 1000
12,C#Cc1cn(-c2nc(-c3cccc4[nH]ccc34)nc(N3CCOCC3)n2)c(CC)n1,< 1000
13,CC(C)Cc1nccn1-c1nc(-c2cccc3[nH]ccc23)nc(N2CCOCC2)n1,< 1000
14,Cc1ccn(-c2nc(-c3ccc(N)nc3)nc(N3CCOCC3)n2)n1,< 1000
15,Nc1ccc(-c2nc(N3CCOCC3)nc(-n3ncc4c3CCCC4)n2)cn1,< 1000
16,CC(C)c1nccn1-c1nc(-c2cnc(N)nc2)nc(N2CCOCC2)n1,< 1000
17,CC#Cc1cn(-c2nc(-c3cccc4[nH]ccc34)nc(N3CCOCC3)n2)c(CC)n1,< 1000
18,CC(C)c1nc2ccccc2n1-c1nc(-c2cnc(N)nc2)nc(N2CCOCC2)n1,< 1000
19,CCc1nccn1-c1nc(-c2cccc3[nH]ccc23)nc(N2CCOCC2)n1,< 1000
20,N#CCCc1nccn1-c1nc(-c2cccc3[nH]ccc23)nc(N2CCOCC2)n1,< 1000
21,CCc1nc2ccccc2n1-c1nc(-c2cccc3[nH]ccc23)nc(N2CCOCC2)n1,< 1000
22,CCc1nccn1-c1nc(-c2cnc(N)nc2)nc(N2CCOCC2)n1,< 1000
23,FC(F)(F)c1nc2ccccc2n1-c1nc(-c2cccc3[nH]ccc23)nc(N2CCOCC2)n1,< 1000
24,Cc1nccn1-c1nc(-c2cccc(CO)c2)nc(N2CCOCC2)n1,< 1000
25,Cc1cn(-c2nc(-c3cccc4[nH]ccc34)nc(N3CCOCC3)n2)cn1,< 1000
26,Oc1cccc(-c2nc(N3CCOCC3)nc(-n3c(C(F)F)nc4ccccc43)n2)c1,< 1000
27,CCCc1nc2ccccc2n1-c1nc(-c2cnc(N)nc2)nc(N2CCOCC2)n1,< 1000

row,SMILES,IC50 [nM]
1,N#CCCc1nccn1-c1nc(-c2cnc(N)nc2)nc(N2CCOCC2)n1,< 1000
2,c1cc(-c2nc(N3CCOCC3)nc(-n3cnc(CN4CCCC4)c3)n2)c2cc[nH]c2c1,< 1000
3,Cc1nccn1-c1nc(-c2cnc(N)nc2)nc(N2CCOCC2)n1,< 1000
4,CCc1cn(-c2nc(-c3cccc4[nH]ccc34)nc(N3CCOCC3)n2)c(CC)n1,< 1000
5,Cc1ccn(-c2nc(-c3cccc4[nH]ccc34)nc(N3CCOCC3)n2)n1,< 1000
6,c1cc(-c2nc(N3CCOCC3)nc(-n3ccnc3)n2)c2cc[nH]c2c1,< 1000
7,Cc1nccn1-c1nc(-c2cccc(O)c2)nc(N2CCOCC2)n1,< 1000
8,Nc1ncc(-c2nc(N3CCOCC3)nc(-n3ncc4c3CCCC4)n2)cn1,< 1000
9,Cc1nc2ccccc2n1-c1nc(-c2ccc(N)nc2)nc(N2CCOCC2)n1,< 1000
10,CCCCc1nccn1-c1nc(-c2cnc(N)nc2)nc(N2CCOCC2)n1,< 1000
11,CC(C)c1nccn1-c1nc(-c2cccc3[nH]ccc23)nc(N2CCOCC2)n1,< 1000
12,N#CC=Cc1nccn1-c1nc(-c2cccc3[nH]ccc23)nc(N2CCOCC2)n1,< 1000
13,Cc1nccn1-c1nc(-c2cccc3[nH]ncc23)nc(N2CCOCC2)n1,< 1000
14,Nc1ncc(-c2nc(N3CCOCC3)nc(-n3c(C(F)F)nc4ccccc43)n2)cn1,< 1000
15,CCCCc1nc2ccccc2n1-c1nc(-c2cccc3[nH]ccc23)nc(N2CCOCC2)n1,< 1000
16,CCc1nc(C)cn1-c1nc(-c2cccc3[nH]ccc23)nc(N2CCOCC2)n1,< 1000
17,Cc1nc(CNC2CC2)cn1-c1nc(-c2cccc3[nH]ccc23)nc(N2CCOCC2)n1,< 1000
18,CCCc1nccn1-c1nc(-c2ccnc3[nH]ccc23)nc(N2CCOCC2)n1,< 1000
19,COC(=O)CCc1nc2ccccc2n1-c1nc(-c2cccc3[nH]ccc23)nc(N2CCOCC2)n1,< 1000
20,Cc1cc(C(F)(F)F)n(-c2nc(-c3cnc(N)nc3)nc(N3CCOCC3)n2)n1,< 1000
21,CCCCc1nccn1-c1nc(-c2cccc3[nH]ccc23)nc(N2CCOCC2)n1,< 1000
22,Cc1nc2ccccc2n1-c1nc(-c2cccc(O)c2)nc(N2CCOCC2)n1,< 1000
23,Cc1nc(CO)cn1-c1nc(-c2cccc3[nH]ccc23)nc(N2CCOCC2)n1,< 1000
24,C[C@H]1COCCN1c1nc(-c2cnc(N)nc2)nc(-n2c(C(F)F)nc3ccccc32)n1,< 1000
25,c1ccc(-c2nccn2-c2nc(-c3cccc4[nH]ccc34)nc(N3CCOCC3)n2)cc1,< 1000
